Among the data in ChEMBL document CHEMBL1152087, “Inhibition of mevalonate 5-pyrophosphate decarboxylase by a proline-containing transition state analog” (Bioorg Med Chem Lett, 1996) are IC50 values, retold here.

For experiment [1], the target named is T1, Diphosphomevalonate decarboxylase (Homo sapiens, UniProt P53602).
T1 sequence (P53602 whole entry): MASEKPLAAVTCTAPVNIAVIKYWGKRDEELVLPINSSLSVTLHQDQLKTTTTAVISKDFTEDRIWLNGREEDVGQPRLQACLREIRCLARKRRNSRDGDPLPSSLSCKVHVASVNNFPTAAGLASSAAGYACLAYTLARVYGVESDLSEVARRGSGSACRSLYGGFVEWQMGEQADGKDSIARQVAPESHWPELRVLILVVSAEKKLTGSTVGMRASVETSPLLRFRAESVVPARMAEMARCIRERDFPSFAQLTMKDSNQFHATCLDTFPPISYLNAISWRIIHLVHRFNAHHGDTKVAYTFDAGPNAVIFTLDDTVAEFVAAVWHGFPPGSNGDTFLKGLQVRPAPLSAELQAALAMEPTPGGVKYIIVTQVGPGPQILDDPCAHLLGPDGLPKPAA
Put plainly: Compound was evaluated for its inhibitory activity against Mevalonate 5-pyrophosphate decarboxylase.

The target in experiment [2] is T1, Diphosphomevalonate decarboxylase. As to the kind of experiment: Compound was evaluated for its inhibitory activity against MevPP decarboxylase.

One may read the IC50 as the concentration that inhibits the measured activity by half. A low value points to greater potency in that assay. For the molecule `O=C(O)CSCCOP(=O)(O)OP(=O)(O)O`, the IC50 in experiment [1] turned out to be 150 nM. In the case of `CN(CC(=O)O)C(=O)COP(=O)(O)OP(=O)(O)O`, in experiment [2], half-maximal inhibition (IC50) required 300 nM.
